# Experiments:
# [1] = test system: TRPV1; experiment: Calcium imaging (Fluo-4) of capsaicin activation in transfected HEK293 cells; format: cell-based; conditions: 0.5 nM capsaicin; cells expressing only TRPV1
# Description: We then investigated whether, upon binding of the designed proteins, TRPV1 activation was positively modulated. […] Probenecid (2 mM) was included in all solutions to prevent Fluo-4 leakage from cells. At the end of incubation, cells were washed three times with ECS and incubated in the same solution for another 20 min at room temperature to complete the intracellular hydrolysis process of the AM ester, which converts the non-fluorescent Fluo-4/AM into the fluorescent version Fluo-4.
# Coverslip with dye-loaded cells was placed in the quick-release magnetic chamber (Warner) and mounted on the stage of a Nikon Eclipse TE2000-U microscope system equipped with a Roper Cascade 128B CCD camera. Fluo-4 was excited by an Argon laser with a filter set of Z488/10 (excitation), z488rdc (dichroic) and recorded through an emission filter HQ5001p (all from Chroma). The duration of light exposure was controlled by a computer-driven mechanical shutter (Uniblitz). Cell images were acquired sequentially with an exposure period of 200 ms at an interval of 1 s. The shutter and the camera were controlled and synchronized by MetaMorph software (Universal Imaging).
# [2] = test system: rats; experiment: Heat pain test, paw withdrawal latency after intraplantar injection; format: in vivo, Sprague-Dawley rats; conditions: for paw withdrawal latency / analgesic effect: intradermal hind paw injection, 100 μl, capsaicin 150 μM alone or with MRS1477 50 μM or TAT-De3 150 μM
# Description: Animals. Male Sprague-Dawley rats (200-250 g, Charles River Laboratories, Inc.) were housed under a 12 h light-dark cycle and allowed access to food and water ad libitum. The ambient temperature of the holding and testing; rooms was ˜22° C. All procedures involving animals were carried out in strict compliance with the National Institutes of Health and institutional guidelines for the humane care of animals and were approved by the Animal Care and Use Committee of Zhejiang University (Approval ID: ZJU20190100). All efforts were made to minimize both animal numbers and distress within the experiments.
# Animal behavioral measurements. A 10 mM stock solution of MRS1477 was prepared in 100% DMSO and further diluted in vehicle to 2 μg/100 μl (50 μM). […] Capsaicin-only injectates contained an equal amount of DMSO as those with MRS1477. All intraplantar injections were made using a. 29 G×½″, 3/10 cc insulin syringe. The experimenter was blinded to the identity of the injectates in the various behavioral experiments.
# Thermal hyperalgesia measurement was performed as reported previously (11, 35). Briefly, unrestrained rats were placed on a clear glass platform which a light beam was applied onto the plantar hind paws of the animals under a small plastic cage which allowed them to move freely. The thermal nociceptive response was defined as the latency between light stimulus onset and paw withdrawal using a feedback-controlled shutdown unit. The intensity of the light stimulus was set such that naive rats responded with a latency of approximately 5 s. Each paw was tested one time. In the absence of a response within a predetermined maximum latency (30 s), the test was terminated to prevent tissue damage. On the day of testing, rats were allowed to habituate for at least 30 min prior to thermal stimulation. […]
# We observed significant analgesic effects of TAT-De3 intradermally injected into the hind paw of rats against thermal pain. […] We recorded paw withdrawal latency to reflect the pain sensation. […]
# [3] = Body temperature measured in the course of heat pain tests; conditions: rats, injection of PAM in heat pain tests
Structure (SMILES),calcium influx [1],paw withdrawal latency / analgesic effect [2],hyperthermia (body temperature) [3],duration of analgesic effects after a single injection ([2]; co-injected with capsaicin 150 μM)
"COc1cc(CNC(=O)CCCC/C=C/C(C)C)ccc1O [capsaicin, reference compound]",did not illicit calcium influx,no change in the paw withdrawal latency,,
CCOC(=O)C1=C(c2ccccc2)NC(C)=C(C(=O)SCCOC)C1CC (centres unmarked) [MRS1477],,paw withdrawal latency was increased,did not cause hyperthemia,diminished after three days

# Reference: patent publication US20240166695A1, “PEPTIDIC POSITIVE ALLOSTERIC MODULATORS TARGETING TRPV1” (priority 2021, published 2024)
